From PubChem BioAssay (NCI)
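Following 48 hours of exposure in 96-well plates, responses at five concentrations were used to interpolate endpoints linearly. Definition used: TGI = concentration required for complete inhibition of growth.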

tested on: MALME-3M melanoma; experiment: growth of human tumour cells (NCI), 48 h

| Structure (SMILES) | TGI |
| --- | --- |
| Nc1nc(Cl)cc(NCCO)n1 | > 100 µM |
| Clc1ccc(Cl)c(Nc2ccnc(SCc3ccccc3)n2)c1 | > 100 µM |
| CN(C)C1=Nc2ccccc2C(=S)N2CSCC12 (stereo not drawn) | 51.8 µM |
| O=C(c1ccccc1)c1c(-c2ccccc2)[nH]n(-c2ccc([N+](=O)[O-])cc2)c(=O)c1=O | > 100 µM |
| C/C(=N\Nc1cc(CN2CCCC2)c(-c2ccc(Cl)cc2)nn1)C(=O)O | > 100 µM |
| COc1cccc(CCn2c(N)c(-c3ccccc3)c3ccc([N+](=O)[O-])cc3c2=O)c1 | 33.6 µM |

tested on: PC-3 prostate; experiment: growth of human tumour cells (NCI), 48 h

| Structure (SMILES) | TGI |
| --- | --- |
| CCOC(=O)CC1CCN(C(=O)c2ccccc2)C2Cc3c([nH]c4ccccc34)C12C[N+](=O)[O-] (stereo not drawn) | > 100 µM |
| Nc1nc(Cl)cc(NCCO)n1 | > 100 µM |
| Clc1ccc(Cl)c(Nc2ccnc(SCc3ccccc3)n2)c1 | > 100 µM |
| CN(C)C1=Nc2ccccc2C(=S)N2CSCC12 (stereo not drawn) | > 100 µM |
| O=C(c1ccccc1)c1c(-c2ccccc2)[nH]n(-c2ccc([N+](=O)[O-])cc2)c(=O)c1=O | > 100 µM |
| C/C(=N\Nc1cc(CN2CCCC2)c(-c2ccc(Cl)cc2)nn1)C(=O)O | > 100 µM |
| COc1cccc(CCn2c(N)c(-c3ccccc3)c3ccc([N+](=O)[O-])cc3c2=O)c1 | > 79 µM |

tested on: K-562 leukemia; experiment: growth of human tumour cells (NCI), 48 h

| Structure (SMILES) | TGI |
| --- | --- |
| CCOC(=O)CC1CCN(C(=O)c2ccccc2)C2Cc3c([nH]c4ccccc34)C12C[N+](=O)[O-] (stereo not drawn) | > 100 µM |
| Nc1nc(Cl)cc(NCCO)n1 | > 100 µM |
| Clc1ccc(Cl)c(Nc2ccnc(SCc3ccccc3)n2)c1 | > 100 µM |
| CN(C)C1=Nc2ccccc2C(=S)N2CSCC12 (stereo not drawn) | > 100 µM |
| O=C(c1ccccc1)c1c(-c2ccccc2)[nH]n(-c2ccc([N+](=O)[O-])cc2)c(=O)c1=O | > 100 µM |
| C/C(=N\Nc1cc(CN2CCCC2)c(-c2ccc(Cl)cc2)nn1)C(=O)O | > 100 µM |
| COc1cccc(CCn2c(N)c(-c3ccccc3)c3ccc([N+](=O)[O-])cc3c2=O)c1 | 21 µM |

tested on: HS 578T breast; experiment: growth of human tumour cells (NCI), 48 h

| Structure (SMILES) | TGI |
| --- | --- |
| CCOC(=O)CC1CCN(C(=O)c2ccccc2)C2Cc3c([nH]c4ccccc34)C12C[N+](=O)[O-] (stereo not drawn) | > 100 µM |
| Nc1nc(Cl)cc(NCCO)n1 | > 100 µM |
| Clc1ccc(Cl)c(Nc2ccnc(SCc3ccccc3)n2)c1 | > 100 µM |
| CN(C)C1=Nc2ccccc2C(=S)N2CSCC12 (stereo not drawn) | > 100 µM |
| O=C(c1ccccc1)c1c(-c2ccccc2)[nH]n(-c2ccc([N+](=O)[O-])cc2)c(=O)c1=O | > 100 µM |
| C/C(=N\Nc1cc(CN2CCCC2)c(-c2ccc(Cl)cc2)nn1)C(=O)O | > 100 µM |
| COc1cccc(CCn2c(N)c(-c3ccccc3)c3ccc([N+](=O)[O-])cc3c2=O)c1 | 5.25 µM |

tested on: MOLT-4 leukemia; experiment: growth of human tumour cells (NCI), 48 h

| Structure (SMILES) | TGI |
| --- | --- |
| CCOC(=O)CC1CCN(C(=O)c2ccccc2)C2Cc3c([nH]c4ccccc34)C12C[N+](=O)[O-] (stereo not drawn) | > 100 µM |
| Nc1nc(Cl)cc(NCCO)n1 | > 100 µM |
| Clc1ccc(Cl)c(Nc2ccnc(SCc3ccccc3)n2)c1 | > 100 µM |
| CN(C)C1=Nc2ccccc2C(=S)N2CSCC12 (stereo not drawn) | 54.1 µM |
| O=C(c1ccccc1)c1c(-c2ccccc2)[nH]n(-c2ccc([N+](=O)[O-])cc2)c(=O)c1=O | > 100 µM |
| C/C(=N\Nc1cc(CN2CCCC2)c(-c2ccc(Cl)cc2)nn1)C(=O)O | > 100 µM |
| COc1cccc(CCn2c(N)c(-c3ccccc3)c3ccc([N+](=O)[O-])cc3c2=O)c1 | 49.5 µM |

tested on: SK-MEL-28 melanoma; experiment: growth of human tumour cells (NCI), 48 h

| Structure (SMILES) | TGI |
| --- | --- |
| CCOC(=O)CC1CCN(C(=O)c2ccccc2)C2Cc3c([nH]c4ccccc34)C12C[N+](=O)[O-] (stereo not drawn) | > 100 µM |
| Nc1nc(Cl)cc(NCCO)n1 | > 100 µM |
| Clc1ccc(Cl)c(Nc2ccnc(SCc3ccccc3)n2)c1 | > 100 µM |
| CN(C)C1=Nc2ccccc2C(=S)N2CSCC12 (stereo not drawn) | > 100 µM |
| O=C(c1ccccc1)c1c(-c2ccccc2)[nH]n(-c2ccc([N+](=O)[O-])cc2)c(=O)c1=O | > 100 µM |
| C/C(=N\Nc1cc(CN2CCCC2)c(-c2ccc(Cl)cc2)nn1)C(=O)O | > 100 µM |
| COc1cccc(CCn2c(N)c(-c3ccccc3)c3ccc([N+](=O)[O-])cc3c2=O)c1 | 50 µM |

tested on: UO-31 renal; experiment: growth of human tumour cells (NCI), 48 h

| Structure (SMILES) | TGI |
| --- | --- |
| CCOC(=O)CC1CCN(C(=O)c2ccccc2)C2Cc3c([nH]c4ccccc34)C12C[N+](=O)[O-] (stereo not drawn) | > 100 µM |
| Nc1nc(Cl)cc(NCCO)n1 | > 100 µM |
| Clc1ccc(Cl)c(Nc2ccnc(SCc3ccccc3)n2)c1 | > 100 µM |
| CN(C)C1=Nc2ccccc2C(=S)N2CSCC12 (stereo not drawn) | > 100 µM |
| O=C(c1ccccc1)c1c(-c2ccccc2)[nH]n(-c2ccc([N+](=O)[O-])cc2)c(=O)c1=O | > 100 µM |
| C/C(=N\Nc1cc(CN2CCCC2)c(-c2ccc(Cl)cc2)nn1)C(=O)O | > 100 µM |
| COc1cccc(CCn2c(N)c(-c3ccccc3)c3ccc([N+](=O)[O-])cc3c2=O)c1 | 27.2 µM |

tested on: ACHN renal; experiment: growth of human tumour cells (NCI), 48 h

| Structure (SMILES) | TGI |
| --- | --- |
| CCOC(=O)CC1CCN(C(=O)c2ccccc2)C2Cc3c([nH]c4ccccc34)C12C[N+](=O)[O-] (stereo not drawn) | > 100 µM |
| Nc1nc(Cl)cc(NCCO)n1 | > 100 µM |
| Clc1ccc(Cl)c(Nc2ccnc(SCc3ccccc3)n2)c1 | > 100 µM |
| CN(C)C1=Nc2ccccc2C(=S)N2CSCC12 (stereo not drawn) | > 100 µM |
| O=C(c1ccccc1)c1c(-c2ccccc2)[nH]n(-c2ccc([N+](=O)[O-])cc2)c(=O)c1=O | > 100 µM |
| C/C(=N\Nc1cc(CN2CCCC2)c(-c2ccc(Cl)cc2)nn1)C(=O)O | > 100 µM |
| COc1cccc(CCn2c(N)c(-c3ccccc3)c3ccc([N+](=O)[O-])cc3c2=O)c1 | 15 µM |

tested on: HOP-92 NSCLC; experiment: growth of human tumour cells (NCI), 48 h

| Structure (SMILES) | TGI |
| --- | --- |
| CCOC(=O)CC1CCN(C(=O)c2ccccc2)C2Cc3c([nH]c4ccccc34)C12C[N+](=O)[O-] (stereo not drawn) | > 100 µM |
| Nc1nc(Cl)cc(NCCO)n1 | > 100 µM |
| Clc1ccc(Cl)c(Nc2ccnc(SCc3ccccc3)n2)c1 | > 100 µM |
| O=C(c1ccccc1)c1c(-c2ccccc2)[nH]n(-c2ccc([N+](=O)[O-])cc2)c(=O)c1=O | 50.9 µM |
| C/C(=N\Nc1cc(CN2CCCC2)c(-c2ccc(Cl)cc2)nn1)C(=O)O | > 100 µM |
| COc1cccc(CCn2c(N)c(-c3ccccc3)c3ccc([N+](=O)[O-])cc3c2=O)c1 | 31.2 µM |

tested on: M14 melanoma; experiment: growth of human tumour cells (NCI), 48 h

| Structure (SMILES) | TGI |
| --- | --- |
| CCOC(=O)CC1CCN(C(=O)c2ccccc2)C2Cc3c([nH]c4ccccc34)C12C[N+](=O)[O-] (stereo not drawn) | > 100 µM |
| Nc1nc(Cl)cc(NCCO)n1 | > 100 µM |
| Clc1ccc(Cl)c(Nc2ccnc(SCc3ccccc3)n2)c1 | > 100 µM |
| CN(C)C1=Nc2ccccc2C(=S)N2CSCC12 (stereo not drawn) | > 100 µM |
| O=C(c1ccccc1)c1c(-c2ccccc2)[nH]n(-c2ccc([N+](=O)[O-])cc2)c(=O)c1=O | > 100 µM |
| C/C(=N\Nc1cc(CN2CCCC2)c(-c2ccc(Cl)cc2)nn1)C(=O)O | > 100 µM |
| COc1cccc(CCn2c(N)c(-c3ccccc3)c3ccc([N+](=O)[O-])cc3c2=O)c1 | 24.3 µM |

tested on: KM12 colon; experiment: growth of human tumour cells (NCI), 48 h

| Structure (SMILES) | TGI |
| --- | --- |
| CCOC(=O)CC1CCN(C(=O)c2ccccc2)C2Cc3c([nH]c4ccccc34)C12C[N+](=O)[O-] (stereo not drawn) | > 100 µM |
| Nc1nc(Cl)cc(NCCO)n1 | > 100 µM |
| Clc1ccc(Cl)c(Nc2ccnc(SCc3ccccc3)n2)c1 | > 100 µM |
| CN(C)C1=Nc2ccccc2C(=S)N2CSCC12 (stereo not drawn) | > 100 µM |
| O=C(c1ccccc1)c1c(-c2ccccc2)[nH]n(-c2ccc([N+](=O)[O-])cc2)c(=O)c1=O | > 100 µM |
| C/C(=N\Nc1cc(CN2CCCC2)c(-c2ccc(Cl)cc2)nn1)C(=O)O | > 100 µM |
| COc1cccc(CCn2c(N)c(-c3ccccc3)c3ccc([N+](=O)[O-])cc3c2=O)c1 | 16 µM |

tested on: RXF 393 renal; experiment: growth of human tumour cells (NCI), 48 h

| Structure (SMILES) | TGI |
| --- | --- |
| CCOC(=O)CC1CCN(C(=O)c2ccccc2)C2Cc3c([nH]c4ccccc34)C12C[N+](=O)[O-] (stereo not drawn) | > 100 µM |
| Nc1nc(Cl)cc(NCCO)n1 | > 100 µM |
| Clc1ccc(Cl)c(Nc2ccnc(SCc3ccccc3)n2)c1 | 79.4 µM |
| CN(C)C1=Nc2ccccc2C(=S)N2CSCC12 (stereo not drawn) | > 100 µM |
| O=C(c1ccccc1)c1c(-c2ccccc2)[nH]n(-c2ccc([N+](=O)[O-])cc2)c(=O)c1=O | > 100 µM |
| C/C(=N\Nc1cc(CN2CCCC2)c(-c2ccc(Cl)cc2)nn1)C(=O)O | > 100 µM |

tested on: SK-MEL-5 melanoma; experiment: growth of human tumour cells (NCI), 48 h

| Structure (SMILES) | TGI |
| --- | --- |
| CCOC(=O)CC1CCN(C(=O)c2ccccc2)C2Cc3c([nH]c4ccccc34)C12C[N+](=O)[O-] (stereo not drawn) | > 100 µM |
| Nc1nc(Cl)cc(NCCO)n1 | > 100 µM |
| Clc1ccc(Cl)c(Nc2ccnc(SCc3ccccc3)n2)c1 | > 100 µM |
| CN(C)C1=Nc2ccccc2C(=S)N2CSCC12 (stereo not drawn) | > 100 µM |
| O=C(c1ccccc1)c1c(-c2ccccc2)[nH]n(-c2ccc([N+](=O)[O-])cc2)c(=O)c1=O | > 100 µM |
| C/C(=N\Nc1cc(CN2CCCC2)c(-c2ccc(Cl)cc2)nn1)C(=O)O | > 100 µM |
| COc1cccc(CCn2c(N)c(-c3ccccc3)c3ccc([N+](=O)[O-])cc3c2=O)c1 | 19.3 µM |

tested on: NCI-H522 lung; experiment: growth of human tumour cells (NCI), 48 h

| Structure (SMILES) | TGI |
| --- | --- |
| CCOC(=O)CC1CCN(C(=O)c2ccccc2)C2Cc3c([nH]c4ccccc34)C12C[N+](=O)[O-] (stereo not drawn) | > 100 µM |
| Nc1nc(Cl)cc(NCCO)n1 | > 100 µM |
| Clc1ccc(Cl)c(Nc2ccnc(SCc3ccccc3)n2)c1 | > 100 µM |
| CN(C)C1=Nc2ccccc2C(=S)N2CSCC12 (stereo not drawn) | 29 µM |
| O=C(c1ccccc1)c1c(-c2ccccc2)[nH]n(-c2ccc([N+](=O)[O-])cc2)c(=O)c1=O | 73.7 µM |
| C/C(=N\Nc1cc(CN2CCCC2)c(-c2ccc(Cl)cc2)nn1)C(=O)O | > 100 µM |
| COc1cccc(CCn2c(N)c(-c3ccccc3)c3ccc([N+](=O)[O-])cc3c2=O)c1 | 9.37 µM |

tested on: SR leukemia; experiment: growth of human tumour cells (NCI), 48 h

| Structure (SMILES) | TGI |
| --- | --- |
| CCOC(=O)CC1CCN(C(=O)c2ccccc2)C2Cc3c([nH]c4ccccc34)C12C[N+](=O)[O-] (stereo not drawn) | > 100 µM |
| Nc1nc(Cl)cc(NCCO)n1 | > 100 µM |
| Clc1ccc(Cl)c(Nc2ccnc(SCc3ccccc3)n2)c1 | > 100 µM |
